Laboratory results taken from US20220017468A1, “ISOQUINOLINE COMPOUNDS AND THEIR USE IN TREATING AhR IMBALANCE” (Dermavant Sciences GmbH, priority 2020, published 2022).
Values joined by “and” are separate entries in the source; they are usually repeats but may differ in a detail not shown here. Identical values can stand only once. “Also recorded” adds a separate entry of the source. Like-named read-outs stand apart in the source and are kept apart here.

How the values were obtained:
[1] = test system: imiquimod (IMQ)-treated mouse; assay: IMQ mouse model of psoriasis; assay type: in vivo; settings: for IL-17% effect vs. IMQ + SEM / IL-17F %effect vs IMQ + SEM: tissue mRNA
Experimental: Female BALB/c mice (BALB/cByJRj) were purchased from Janvier (France). Mice are allowed to eat a normal diet AO4C from SAFE (France) and drink ad libitum. BALB/c JByRj female mice (8 week-old at study initiation) are treated with imiquimod (IMQ) cream (5%) or vanicream (non-inflammatory inert cream). For three days of pre-treatment, and then daily until the end of the study (two hours before each application of IMQ), the same skin area is treated topically with 100 μL of compound. Mice are monitored for changes in clinical symptoms over the course of the study. Affected back skin is examined by histology and qPCR for evidence of compound efficacy.
Starting 3 days after first treatment, IMQ cream was applied daily for 4 (StudyA) or 10 days (Study B). Clinical scoring was monitored daily (FIG. 5A, FIG. 5B). At the end of the study, treated skin was evaluated by histology and qPCR for induced cytokine gene expression.
On days 0, 1, 2, 3: visual evaluation of the skin and psoriasis clinical scorewere noted.
Psoriasis reactions (erythema and plaques) are reported according to a 0-4 scale in ascending order of severity as shown below and results are shown in FIG. 5A1.
On the last day of treatment, a 6 mm punch of skin in the treated area is collected on a aluminium sheet (to keep the skin flattened) and placed into a tube containing Formalin solution (Neutral Buffered 10% (SIGMA HT501320-9 5L)) for histological analysis (FIG. 5A2).
On days 0, 1, 2, 3, 4, 5, 6, 7,8, 9: visual evaluation of the skin and psoriasis clinical score were noted.
Psoriasis reactions (erythema and plaques) are reported according to a 0-4 scale in ascending order of severity as shown below and results are shown in FIG. 5B1.
On the last day of treatment, a 6 mm punch of skin in the treated area is collected on a aluminium sheet (to keep the skin flattened) and placed into a tube containing Formalin solution (Neutral Buffered 10% (SIGMA HT501320-9 5L)) for histological analysis (FIG. 5B2).

[2] = test system: human primary keratinocytes; assay: keratinocyte viability; assay type: cell-based; settings: 48 h, two days
Source text: Points represent percent maximum expression of protein compared to Th17 from six combined donors; 3 biological replicates per treatment. Error bars represent standard error of mean. […] Data are mean±standard error from 3 to 9 experimental data points. […] Error bars represent mean ±standard error of 10-15 biological replicates.

CB2 = biological target: T1, CB2 (Homo sapiens, UniProt P34972); assay: fluorescence-based agonist assay using genetically modified yeast; assay type: cell-based; settings: read-out: CB2 pEC50 (converted)
T1 construct: expressed in transfected cells
T1 sequence (P34972 whole entry, species assumed): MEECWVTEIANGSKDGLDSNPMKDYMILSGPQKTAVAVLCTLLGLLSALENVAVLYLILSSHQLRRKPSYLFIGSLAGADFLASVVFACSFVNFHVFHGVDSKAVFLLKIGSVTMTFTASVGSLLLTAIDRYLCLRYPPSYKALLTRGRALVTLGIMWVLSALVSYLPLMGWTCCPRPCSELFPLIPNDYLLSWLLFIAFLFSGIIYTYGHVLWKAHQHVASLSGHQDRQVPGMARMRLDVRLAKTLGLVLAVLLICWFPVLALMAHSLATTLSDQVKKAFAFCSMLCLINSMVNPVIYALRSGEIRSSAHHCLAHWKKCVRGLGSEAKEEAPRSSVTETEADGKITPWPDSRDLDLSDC

[3] = blood-to-plasma ratio and blood cell association, minipig; assay type: in vitro ADME
[4] = pharmacokinetics after a single intravenous dose, minipig; assay type: in vivo; settings: plasma, 1 mg/kg intravenous, mean
Source text: (§1) Bioavailability was 46.5% and 41.0% for 30% Captisol and 30% Cavitron, respectively. 30% Captisol formulation was selected for the 7-day subcutaneous toxicity study in rat.

Nrf2 = assay: luciferase-based reporter assay for NQO1 gene expression; assay type: cell-based
[5] = metabolic stability in hepatocytes, mouse; assay type: in vitro ADME
[6] = metabolic stability in liver microsomes, rat; assay type: in vitro ADME
[7] = metabolic stability in liver microsomes, minipig; assay type: in vitro ADME
[8] = pharmacokinetics after a single intravenous dose, rat; assay type: in vivo; settings: plasma, 1 mg/kg intravenous
Source text: as §1

[9] = metabolic stability in liver microsomes, human; assay type: in vitro ADME
Minipig Plasma Proteins = assay: plasma protein binding by Rapid Equilibrium Dialysis, minipig; assay type: in vitro ADME
Source text: (§2) The blood-to-plasma ratios were similar across species (1.22-1.36, Table 9).

[10] = metabolic stability in hepatocytes, human; assay type: in vitro ADME
[11] = blood-to-plasma ratio and blood cell association, rat; assay type: in vitro ADME
[12] = skin binding in human skin homogenate; assay type: in vitro ADME; settings: 25, 50 and 100 ng/mL
[13] = metabolic stability in hepatocytes, minipig; assay type: in vitro ADME
[14] = plasma protein binding by Rapid Equilibrium Dialysis, human; assay type: in vitro ADME; settings: human, plasma
Source text: as §2

Human Plasma Proteins = assay: as above; assay type: in vitro ADME
Source text: as §2

[15] = oxygen radical absorbance capacity (ORAC) test; assay type: biochemical; settings: Trolox Equivalent Values
[16] = read-out: Blood-to-plasma Ratio Mean (% CV)
[17] = read-out: Blood-to-plasma Ratio Replicate

CC(C)c1c(O)cc(-c2cc3ccccc3cn2)cc1O
IL-17% effect vs. IMQ + SEM ([1]; Study A, 0.3% + IMQ): 16.27 + 4.816%
IL-17F %effect vs IMQ + SEM ([1]; Study A, 0.3% + IMQ): 22.21 + 7.418%
IL-17% effect vs. IMQ + SEM ([1]; Study B, 0.1% + IMQ): 78.48 + 18.771%
IL-17F %effect vs IMQ + SEM ([1]; Study B, 0.1% + IMQ): 45.23 + 9.519%
IL-17% effect vs. IMQ + SEM ([1]; Study B, 0.3% + IMQ): 79.33 + 22.900%
IL-17F %effect vs IMQ + SEM ([1]; Study B, 0.3% + IMQ): 60.01 + 12.229%
clinical score ([1]; daily topical, 60% EtOH: 40% H2O solution, vs vehicle-treated mice): reduced clinical score
skin cytokine gene expression (IL-17A, IL-17F) ([1]; topical, qPCR): significantly inhibited; also recorded: reduced cytokine gene expression
epidermis thickening induced by imiquimod ([1]; topical, skin histology): reduce the epidermis thickening; also recorded: reduced epidermal thickening
IC50 [2]: 12.4 µM
EC50 (CB2): 0.2 µM
% Blood Cell Association Mean (% CV) ([3]; 1 μM): 55.6 (2.02) %
% Blood Cell Association Replicate ([3]; 1 μM): 55.3% and 56.8% and 54.5%
Blood-to-plasma Ratio Replicate ([3]; 1 μM): 1.25 and 1.19
Mean % Blood Stability ([3]; 1 μM): 105%
blood plasma ratio at 1 μM [3, 16]: 1.22
blood plasma ratio at 1 μM [3, 17]: 1.21
AUC(0-inf) [4]: 783 ng·h/mL
half-life [4]: 61.2 min
clearance ([4]; read-out: CLp): 21.3 mL/min/kg
Vd ([4]; read-out: Vss): 1.5 L/kg
Nrf2 pEC50 (Nrf2): pEC50 = 7.0
half-life at 0.5 μM [5]: 8.39 min
CLint, hep ([5]; 0.5 μM): 22.3 mL/min/g liver
CLint scaled at 0.5 μM ([5]; read-out: Scaled CLint, hep): 1140 mL/min/kg
CLint, mic ([6]; rat liver microsomes, 0.5 μM): 6.21 mL/min/g liver
CLint scaled at 0.5 μM ([6]; rat liver microsomes, 0.5 μM, read-out: Scaled CLint, mic): 224 mL/min/kg
half-life at 0.5 μM ([6]; rat, microsomes): 10.3 min
CLint, mic ([7]; minipig liver microsomes, 0.5 μM): 3.01 mL/min/g liver
CLint scaled at 0.5 μM ([7]; minipig liver microsomes, 0.5 μM, read-out: Scaled CLint, mic): 50.3 mL/min/kg
half-life at 0.5 μM ([7]; minipig, microsomes): 24.2 min
AUC(0-inf) ([8]; mean n = 3): 95.7 ng·h/mL
half-life ([8]; mean n = 3): 41.4 min
clearance ([8]; mean n = 3, read-out: CLp): 175 mL/min/kg
Vd ([8]; mean n = 3, read-out: Vss): 6 L/kg
CLint, mic ([9]; human liver microsomes, 0.5 μM): 1.35 mL/min/g liver
CLint scaled at 0.5 μM ([9]; human liver microsomes, 0.5 μM, read-out: Scaled CLint, mic): 33.1 mL/min/kg
half-life at 0.5 μM ([9]; human, microsomes): 40.9 min
recovery at 4 h, 2 μM (Minipig Plasma Proteins): 95.6%
% Unbound Replicate (Minipig Plasma Proteins; 2 μM): 2.52% and 1.57%
Mean % Stability at 4 hrs (Minipig Plasma Proteins; 2 μM): 107%
half-life at 0.5 μM [10]: 10.4 min
CLint, hep ([10]; 0.5 μM): 15.7 mL/min/g liver
CLint scaled at 0.5 μM ([10]; read-out: Scaled CLint, hep): 384 mL/min/kg
% Blood Cell Association Mean (% CV) ([11]; 1 μM): 60.2 (4.37) %
% Blood Cell Association Replicate ([11]; 1 μM): 58.9% and 58.3% and 63.1%
Blood-to-plasma Ratio Replicate ([11]; 1 μM): 1.29 and 1.46
Mean % Blood Stability ([11]; 1 μM): 104%
blood plasma ratio at 1 μM [11, 16]: 1.36
blood plasma ratio at 1 μM [11, 17]: 1.31
fraction unbound ([12]; human dermis homogenate): 0.341 ± 0.115
fraction unbound ([12]; human epidermis homogenate): 0.513 ± 0.011
fraction unbound ([12]; whole human skin homogenate): 0.219 ± 0.0072
in vitro-to-in vivo extrapolation (IVIVE) ratio ([13]; minipig): 0.27
CLint, hep ([13]; minipig hepatocytes, 0.5 μM): 6.27 mL/min/g liver
half-life at 0.5 μM ([13]; minipig hepatocytes, 0.5 μM): 26.5 min
CLint scaled at 0.5 μM ([13]; minipig hepatocytes, 0.5 μM, read-out: Scaled CLint, hep): 105 mL/min/kg
fraction unbound at 2 μM ([14]; read-out: % Unbound Mean (% CV)): 0.0108
fraction unbound at 2 μM ([14]; read-out: % Unbound Replicate): 0.0106
fraction unbound at 2 μM ([14]; read-out: Mean % Bound (converted)): 0.011
recovery at 2 μM (Human Plasma Proteins): 102%
% Unbound Replicate (Human Plasma Proteins; 2 μM): 1.05% and 1.13%
Mean % Stability at 4 hrs (Human Plasma Proteins; 2 μM): 101%
Hydroxyl-radical [15]: 759 TEV
Peroxyl radical-hydro [15]: 3267 TEV
Peroxyl radical-lipo [15]: 1397 TEV
Peroxynitrite [15]: 100 TEV
Singlet oxygen [15]: 2914 TEV
Total ORAC value [15]: 8437 TEV
